B1: RQREVVDLVSPREPSRDRRAGGGDLAARPTGRASVWLLGVSVCTAVCRVSCCAGVSCFLFTGEEGPGYACSESWNSEGRPKWEAIVERTCDMGPYNGMCLQG (peptide)
chain: RQREVVDLVSPREPSRDRRAGGGDLAARPTGRASVWLLGVSVCTAVCRVSCCAGVSCFLFTGEEGPGYACSESWNSEGRPKWEAIVERTCDMGPYNGMCLQG
notes: alternative splicing, CTHRC1
B2: SLLIGALRITWKREAGRKSFFKCGLRVHMWKGLQFIEITRRNWMLIFQSCSLFGTSQYRSLTKKCQLCFRFKRVSSKGSDITDKREVTH (peptide)
chain: SLLIGALRITWKREAGRKSFFKCGLRVHMWKGLQFIEITRRNWMLIFQSCSLFGTSQYRSLTKKCQLCFRFKRVSSKGSDITDKREVTH
notes: alternative splicing, ARHGAP42
B3: MSATTGSQDNPEGKRDPSRKFQEQKALPKRPPLQKNLRNGVGQHYPATLTSRTRNSIKMRHSRTTRARRPPPSPVLPWAASNSQARPETSSLSEKSPEV (peptide)
chain: MSATTGSQDNPEGKRDPSRKFQEQKALPKRPPLQKNLRNGVGQHYPATLTSRTRNSIKMRHSRTTRARRPPPSPVLPWAASNSQARPETSSLSEKSPEV
notes: alternative splicing, CSAG1
B4: TQRLPGHKVSNSCMTGLVLTFTKRDPFHKPVTWCGQLADVRQCMFHSIRERAHPLQRALATLNFFFVSFYTALYLTHPLLTLQTWEVVVTVCFSCWELCVPCDVLRRTCRGQR (peptide)
chain: TQRLPGHKVSNSCMTGLVLTFTKRDPFHKPVTWCGQLADVRQCMFHSIRERAHPLQRALATLNFFFVSFYTALYLTHPLLTLQTWEVVVTVCFSCWELCVPCDVLRRTCRGQR
notes: alternative splicing, BTBD3
B5: RQREVVDLVKKDLVMRAVSLGTQRGDQNGRPSWSGHAIWARIMECAYKGQQECLVETGALGPMAFRVHLGSQVGMDSKEKRGNV (peptide)
chain: RQREVVDLVKKDLVMRAVSLGTQRGDQNGRPSWSGHAIWARIMECAYKGQQECLVETGALGPMAFRVHLGSQVGMDSKEKRGNV
notes: alternative splicing, CTHRC1
B6: EIEGSCHGGMITMDIKMGSYSCDYLKHSETLSAMVVSCGISFLFLFPRKKIAKLIFKEQVP (peptide)
chain: EIEGSCHGGMITMDIKMGSYSCDYLKHSETLSAMVVSCGISFLFLFPRKKIAKLIFKEQVP
notes: alternative splicing, EPHA6
B7: GWKICREGIGPVMLTMTSGEWSFSFLEAICGVSREPVPRRRHCIWDTRGGVGLCEASCWRPTSEVG (peptide)
chain: GWKICREGIGPVMLTMTSGEWSFSFLEAICGVSREPVPRRRHCIWDTRGGVGLCEASCWRPTSEVG
notes: alternative splicing, STARD5
B8: PPTAAASQVRSPTTATGTAAAGSLRAQTSSRATTESTRATGHSSAICAIVPSRAPITWRCT (peptide)
chain: PPTAAASQVRSPTTATGTAAAGSLRAQTSSRATTESTRATGHSSAICAIVPSRAPITWRCT
notes: gene fusion FOSB-> KLF2

Key:
CD4+ T cells = assay: Exogenous autologous healthy donor restimulation assay, TNFα and IFNγ production by CD4+ T cells; assay type: cell-based, human; parameters: Frequency (TNFα+ IFNγ+ CD4 T cells): unit not given here; details: donor independent, peptide pool 10 μg/mL, healthy donors; for Fold change (CD4+) vs. DMSO: maximum CD4+ T-cell response (TNFα and IFNγ); for Frequency (TNFα+ IFNγ+ CD4 T cells): maximum CD4+ T-cell response
How it was run: (§1)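 CD1c+ DCs from healthy donor PBMCs pulsed 2 h with 15-mer overlapping neoantigen peptide pools (10 μg/mL), irradiated 50 Gy, then co-cultured 12 days with autologous CD3+ T cells plus IL-15/IL-2. Restimulated day 11 with same pools, overnight with protein inhibitor; intracellular TNFα/IFNγ by flow. Positive: ≥3-fold over DMSO and ≥0.01% double-positive.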

CD8+ T cells = assay: Exogenous autologous healthy donor restimulation assay, TNFα and IFNγ production by CD8+ T cells; assay type: cell-based, human; parameters: Frequency (TNFα+ IFNγ+ CD8 T cells): unit not given here; details: for Fold change (CD8+) vs. DMSO: maximum CD8+ T-cell response (TNFα and IFNγ); for Fold change (CD8+) vs. DMSO / Frequency (TNFα+ IFNγ+ CD8 T cells): donor independent, peptide pool 10 μg/mL, healthy donors; for Frequency (TNFα+ IFNγ+ CD8 T cells): maximum CD8+ T-cell response; for Immunogenic (yes/no): positive if CD8+ and/or CD4+ double positive TNFα/IFNγ frequency >=3-fold over DMSO and at least 0.01%
How it was run: as §1

Molecule	Fold change (CD4+) vs. DMSO (CD4+ T cells)	Frequency (TNFα+ IFNγ+ CD4 T cells) (CD4+ T cells)	Fold change (CD8+) vs. DMSO (CD8+ T cells)	Frequency (TNFα+ IFNγ+ CD8 T cells) (CD8+ T cells)	Immunogenic (yes/no) (CD8+ T cells)
LDPPHDEKALACPQWTLLWIFWTAKAL [AS95, alternative splicing, WDR64]	19.58	0.014	1.58	0.13	Yes
GTTRLLSGEDFS [AS111, alternative splicing, CD55]	16.71	0.06	1.16	0.012	Yes
QLKKMVSKVRLRRARLPGRAHRSLPRPVESVPAQPSKLPRRAGSPGAVLSDLLRTPPRGACRLVRESPYGSWEGGGRRQSTKAWSGGYLTPAAHPPSSLPLSLELSVGQCSFSFVFINTNKGSYLVVDLRQSSTPVPI [AS11]	69.02	0.45	4	0.033	Yes
TSTSPKFPVFIFRLVCWVRTELVLR [AS47, alternative splicing, NRG3]	1.907	0.011	53.5	0.25	Yes
AKFWSDISINRAPSFG [AS94, alternative splicing, TTLL7]	62.53	0.63	97.14	2.72	Yes
KLLYEVSQKMVL [AS50, alternative splicing, PDZRN4]	8.29	0.041	3.032	0.038	Yes
IDPSSPLHTYYERITKGRNPERRYMKPERISPGHEAMEKNLEDNL [AS129, alternative splicing, TET1]	9.79	0.022	19.08	0.27	Yes
LGRLEEAKSFETEEN [AS121, alternative splicing, OGT]	1.41	0.02	194.72	0.59	Yes
PPLITNVTEKPWKHTRIEMPLARLTRP [FUS51, gene fusion POU2AF1-> COLCA1]	11.93	0.061	200	0.06	Yes
EGTPFEDGKSYSLCFL [AS78, alternative splicing, UBE2B]	3.14	0.024	29.32	0.52	Yes
VHLDFSSAEMGFPHAAQANVELLGSSDLLT [AS116, alternative splicing, FCRL5]	6.32	0.076	192.71	1.42	Yes
LEDKELGRISVCPWTEGLEKMEKTLLCSSSG [AS88, alternative splicing, CADPS2]	79.18	0.12	4.55	0.025	Yes
DMEVFLKEASTNQHNTLIHLTLTFST [AS73, alternative splicing, SMC5]	72.58	0.11	3	0.02	Yes
B1	57.613	0.072	2700	0.27	Yes
B2	15.34	0.1	1100	0.29	Yes
B3	79.18	0.12	6327.68	11.2	Yes
B4	7.26	0.025	17.3	0.77	Yes
B5	223.78	0.16	288.14	0.51	Yes
B6	111.44	0.57	100	17	Yes
B7	44.35	0.081	874.02	7.77	Yes
B8	6.84	0.002	37.46	0.056	Yes
